These results are taken from PMC8314276, “A Commercial Extract of Cyanotis arachnoidea Roots as a Source of Unusual Ecdysteroid Derivatives with Insect Hormone Receptor Binding Activity” (Journal of Natural Products, 2021).

For test [1], the target named is T1, insect ecdysteroid receptor (EcR) (Spodoptera frugiperda, UniProt Q8MWR2).
T1 construct: To an Sf-9 cell suspension (400 μL; (2.0–3.0) × 10^6 cells/mL) in a disposable culture tube; endogenous in cells; host or cells: Sf-9 cells
T1 sequence (Q8MWR2 1-403): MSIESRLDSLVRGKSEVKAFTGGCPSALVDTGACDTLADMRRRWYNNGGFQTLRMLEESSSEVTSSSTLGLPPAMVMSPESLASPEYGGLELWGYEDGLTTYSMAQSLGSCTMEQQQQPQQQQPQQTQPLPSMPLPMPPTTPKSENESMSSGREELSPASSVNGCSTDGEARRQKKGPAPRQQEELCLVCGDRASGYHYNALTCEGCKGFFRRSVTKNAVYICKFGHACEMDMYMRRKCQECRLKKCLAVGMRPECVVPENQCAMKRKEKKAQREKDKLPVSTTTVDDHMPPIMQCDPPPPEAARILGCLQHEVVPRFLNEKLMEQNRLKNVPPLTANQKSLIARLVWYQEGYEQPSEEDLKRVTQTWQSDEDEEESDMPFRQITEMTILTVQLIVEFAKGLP
Briefly: EcR binding assay ([3H]PonA displacement in Sf-9 cells). To be noted: pIC50 (M), ecdysteroid receptor binding affinity, inhibition of [3H]PonA binding, Sf-9 cell suspension, 25 °C, 30 min; probit analysis. On the procedure:
Tritiated PonA ([^3H]PonA; 3.5 TBq/mmol) was custom synthesized by American Radiolabeled Chemicals, Inc. (St. Louis, MO, USA). A stock solution of [^3H]PonA (30 000 dpm/μL, ∼0.1 μM) was prepared in 70% aqueous EtOH. Cold PonA and 20E were obtained from Enzo Biochem Inc. (New York, NY, USA) and Sigma-Aldrich Co. (St. Louis, MO, USA), respectively. Tebufenozide was obtained from stock samples. All test compounds were dissolved in DMSO. An Sf-9 cell line was cultured in EX-CELL 420 medium (SAFC Biosciences, Inc., Lenexa, KS, USA) supplemented with 10% fetal bovine serum.
The binding assay was performed as described previously with some modifications.[43],[44] To an Sf-9 cell suspension (400 μL; (2.0–3.0) × 10^6 cells/mL) in a disposable culture tube (12 mm × 75 mm) was added a test compound solution (1 μL), followed by a [^3H]PonA solution (2 μL, 60 000 dpm). After incubation at 25 °C for 30 min, the cell suspension was diluted with water (3 mL) and filtered through a glass fiber filter GF/B (25 mm; Whatman plc, Maidstone, UK). The filter was washed with water (2 × 3 mL), dried, and transferred to a glass vial. To the vial were added 3 mL of Insta-Gel Plus (PerkinElmer Inc., Waltham, MA, USA), and the radioactivity was measured with an LSC-8000 counter (Aloka, Tokyo, Japan). DMSO and PonA (final concentration: 2.7 μM) were used to determine the total and nonspecific binding, respectively. The test compounds were first screened at 25 μM, and the compounds with an inhibition rate of ≥50% were subjected to concentration–response experiments. The 50% inhibition concentration for [^3H]PonA binding [IC50 (M)] was determined using probit analysis,[45] and the logarithm of its reciprocal, pIC50, was used as the index of the binding affinity.

Test [2] concerns the target T2, EcR (Spodoptera frugiperda, UniProt Q8MWR2).
T2 sequence (Q8MWR2 1-403): T1 sequence (Q8MWR2 1-403)
As to the kind of experiment: Reporter gene assay (hsp27 ecdysone response element/firefly luciferase) in Sf-9 cells. The format is cell-based, insect. Here is the method:
The reporter gene assay was performed in Sf-9 cells according to a previously reported method.[46] Briefly, a reporter plasmid was constructed from pBmbA/hsp27/firefly luciferase (hsp27/Fluc), in which seven repeats of hsp27 ecdysone response element were inserted. This plasmid was a kind gift from Dr. Luc Swevers (Institute of Biosciences & Applications, National Center for Scientific Research “Demokritos”, Athens, Greece). The plasmid was amplified in Escherichia coli and purified using a QIAGEN plasmid midi kit (QIAGEN GmbH, Hilden, Germany). A cell suspension (approximately 2.0 × 10^6 cells/mL; 400 μL) was added to each well of a 24-well plate, and it was incubated for 1 h. Then, 200 μL of a mixture of plasmids and TransFast transfection reagent (Promega; Madison, WI, USA) was added to each well. After incubating for 24 h, 6 μL of a solution of test compound (1% v/v) was added and incubated. After 48 h, the medium in each well was removed with a pipet. Cells were lysed by adding 100 μL/well of Passive Lysis Buffer and incubating for 15 min at 25 °C. The lysate (20 μL) was transferred to a 96-well microplate for the luciferase assay. Chemical luminescence was measured using a 96-microplate GLOMAX luminometer (Promega), according to the manufacturer’s instructions.

By IC50 is commonly meant the midpoint of a concentration-inhibition curve. Higher therefore signals a need for much substance. Take `CCC1(CC)O[C@H]2C[C@@]3(C)[C@@H](C[C@H]2O1)C(=O)C=C1[C@@H]3CC[C@]2(C)[C@@H]([C@@](C)(O)[C@H](O)CCC(C)(C)O)CC[C@@]12O` [Compound 19, 28,28-diethyl-2,3-methylidene-20-hydroxyecdysone]: the IC50 in test [1] was 3.02e-06 M. In addition, the “agonistic activity in reporter gene assay at 1 μM” value in test [2] (1 μM, Sf-9 cells, luciferase reporter) is recorded as “did not activate the reporter gene”. The agonist/antagonist classification result in test [2] (binding assay combined with reporter gene assay) was “ecdysteroid antagonists”.
